In patent US5502202A, “Aminoalkylthiazole derivative” (Taisho Pharmaceutical Co., Ltd., priority 1991, dated 1996):
Structures can show the parent of a compound that is named as a salt.

How the values were obtained:
dopamine autoreceptor = conditions: reported in literature, cited from earlier work
[1] = system: (+)-SKF 10047-induced stereotypical behavior; experiment: Test on action on (+)-SKF 10047-induced abnormal (stereotypical) behaviors; format: in vivo, mouse (male ICR); conditions: Mus musculus; oral, 30 min (35 min for drug C) before 30 mg/kg i.p. (+)-SKF 10047; scores over 40 min; read-out: ED25 (stereotypical behavior suppression)
Description: TEST EXAMPLE 2 Test on Action on (+)-[…] Abnormal Behaviors! Male ICR mice (Nippon Charles River) aged 4 to 5 weeks were divided into groups each having 10 animals and used. Each animal was separately fed in a small transparent cage and fully familiarized with its environment. To the animals, test drugs […] % gum arabic at various concentrations were orally administered. […] Since 10 minutes thereafter, stereotypical behavior scores were measured for 40 minutes at intervals of 5 minutes. (Test drug) (Stereotypical behavior score) 0: normal behaviors 1: sniffing, standing up 2: discontinuous movement, sniffing stronger than 1 3: circling, moving backward 4: continuous circling 5: bending and stretching of limbs, head and neck The stereotypical behavior suppression ratio was determined on the basis of the sum of the scores of the test groups measured 8 times within 40 minutes by referring the sum of the score of a solvent (distilled water for injection) administered-group measured 8 times within 40 minutes as to 100%. Each ED25 value was calculated by determining the slope of a line of the suppression ratio formed by the method of least squares.

sigma receptor [2] = conditions: rimcazole, cited from European Journal of Pharmacology, 155, 345 (1988); cited from earlier work
dopamine D2 receptor [3] = conditions: rimcazole, cited; value for [3H] spiperone binding; cited from earlier work
sigma receptor [4] = target: sigma receptor (Rattus norvegicus, UniProt Q9R0C9); experiment: biochemical; format: binding, rat (male Wistar); conditions: for IC50: 2 nM [3H](+)-3-PPP, rat whole brain membrane, pH 8.0, 21° C., 90 min; for inhibition at 1 µM: pH 8, read-out: Sigma receptor Inhibition % (1 μM)
sigma receptor (Rattus norvegicus, UniProt Q9R0C9), sequence (Q9R0C9 whole entry): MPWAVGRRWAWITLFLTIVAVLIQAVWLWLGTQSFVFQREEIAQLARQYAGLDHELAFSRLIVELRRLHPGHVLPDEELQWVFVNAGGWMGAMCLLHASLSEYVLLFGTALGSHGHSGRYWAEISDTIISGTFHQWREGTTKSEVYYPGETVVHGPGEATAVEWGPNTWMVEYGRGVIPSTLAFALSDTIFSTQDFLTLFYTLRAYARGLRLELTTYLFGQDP
Description: (§1) Male Wistar rats were employed as test animals.
(§2) Radiolabeled ^3 H! […] (-)-sulpiride was used as a compound specifically binding to dopamine D2 receptor.
(§3) Reactions of these ^3 H! compounds binding to the corresponding receptors were performed respectively in accordance with the following methods (1) and (2) described in Molecular Pharmacology, 32, 772 (1987), Journal of Pharmacy and Pharmacology, 32, 441 (1980) and Molecular Pharmacology, 32, 820 (1987).
(§4) After the completion of each reaction, the reaction mixture was filtered with suction into a glass filter (GF/B) and the radioactivity of the filter paper was measured with a liquid scintillation spectrometer.
(§5) (-)-sulpiride, and the difference between the total binding (the value measured by adding no test drug) and the nonspecific binding was referred to as the specific binding.
(§6) By reacting the ^3 H! compound at a definite concentration (2 nM) with the test drugs at various concentrations under the conditions as specified in the above (1) and (2), inhibition curves were obtained. On the basis of these inhibition curves, the concentration of each test drug causing 50% inhibition of the specific binding (IC50) was determined.

dopamine D2 receptor [5] = target: dopamine D2 receptor (Rattus norvegicus, UniProt P61169); experiment: biochemical; format: binding, rat (male Wistar); conditions: for IC50: 2 nM [3H](-)-sulpiride, rat striata membrane, pH 7.7, 37° C., 10 min; for inhibition at 1 µM: pH 7.7, read-out: Dopamine D2 receptor Inhibition % (1 μM)
dopamine D2 receptor (Rattus norvegicus, UniProt P61169), sequence (P61169 whole entry): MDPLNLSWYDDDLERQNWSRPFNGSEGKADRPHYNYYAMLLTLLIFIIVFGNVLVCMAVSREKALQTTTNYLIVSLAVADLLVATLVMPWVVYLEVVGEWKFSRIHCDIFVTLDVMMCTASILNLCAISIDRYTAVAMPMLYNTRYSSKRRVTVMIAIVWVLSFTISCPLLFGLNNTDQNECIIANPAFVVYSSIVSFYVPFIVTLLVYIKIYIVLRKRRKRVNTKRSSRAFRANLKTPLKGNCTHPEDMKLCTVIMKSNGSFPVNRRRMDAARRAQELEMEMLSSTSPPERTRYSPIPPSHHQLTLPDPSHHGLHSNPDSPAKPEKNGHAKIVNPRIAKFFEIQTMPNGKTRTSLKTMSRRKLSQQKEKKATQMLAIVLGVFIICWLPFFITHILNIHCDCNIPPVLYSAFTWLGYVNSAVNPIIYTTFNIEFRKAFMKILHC
Description: as §1, §2, §3
(2) ^3 H! (-)-sulpiride binding:
(-)-sulpiride and a test drug were incubated in 1 ml of a 50 mM Tris-HCl buffer solution (pH 7.7) at 37° C. for 10 minutes.
as §4, §5, §6

Row | Structure (SMILES) | ED25 [1] [mg/kg] | IC50 (sigma receptor [4]) [nM] | inhibition at 1 µM (sigma receptor [4]) [%] | further results
1 | C=CCN1CCc2nc(N)sc2CC1 [talipexole] | – | – | – | effect on dopamine nerve system (in words) (dopamine autoreceptor; by stimulating the presynaptic autoreceptor): suppresses nerve ignition and biosynthesis and liberation of dopamine; selective dopamine autoreceptor agonism (in words) (dopamine autoreceptor): selective dopamine autoreceptor agonist
2 | C[C@@H]1CN(CCCn2c3ccccc3c3ccccc32)C[C@H](C)N1 [Rimcazole] | 37.9 | – | – | IC50 (sigma receptor [2]): 1460 nM; IC50 (dopamine D2 receptor [3]): 86000 nM
3 | CCCN1CCCC(c2cccc(O)c2)C1 (single isomer, unassigned) [3-PPP, 3-(3-hydroxyphenyl)-N-n-propylpiperidine, reference compound] | – | 24.3 | – | –
4 | CCCCCCN(CCCCCC)CCc1sc(N)nc1-c1ccc(Br)cc1.Cl.Cl [Test Drug B (Table 1), 2-Amino-4-(4-bromophenyl)-5-(2-di-n-hexylaminoethyl)thiazole dihydrochloride] | 0.019 | 1.6 | 100 | IC50 (dopamine D2 receptor [5]): > 1000 nM; inhibition at 1 µM (dopamine D2 receptor [5]): -33.3%
5 | CCCCCCCCN(CCCCCCCC)CCc1sc(N)nc1-c1ccc(Br)cc1 [Test Drug C (Table 1), 2Amino-4-(4-bromophenyl)-5-(2-di-n-octylaminoethyl)-thiazole dihydrochloride] | – | 3.2 | 99.7 | IC50 (dopamine D2 receptor [5]): > 1000 nM; inhibition at 1 µM (dopamine D2 receptor [5]): -31%
6 | CCCCCN(CCCCC)CCc1sc(N)nc1-c1ccc(Br)cc1 [Test Drug A (Table 1), 2Amino-4-(4-bromophenyl)-5-(2-di-n-pentylaminoethyl)-thiazole dihydrochloride] | – | 8.7 | 93.1 | –
7 | OC(CCCN1CCN(c2ncc(F)cn2)CC1)c1ccc(F)cc1 (stereo not drawn) [BMY 14802] | 7.6 | – | – | –
